From the supplement of paper PMC10883282

Assays:
Assay in all cases: relative viability vs DMSO control (72 h) (fraction); higher = more viable cells
SYO-1 = test system: SYO-1
How it was run: (§1)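 Relative viability is percent growth read by ATPLite and averaged over up to triplicate wells. Sarcoma cells were seeded in 384-well plates to reach 80–90% confluence and given 2.5 µl of serially diluted compound after 24 h, from source plates of 10 mM to 0.0002 mM. Incubation lasted 72 h at 37 °C, 5% CO2, with 0.1% DMSO vehicle and a 5 µM positive control, and the data were rescaled so 1 equals full and 0 equals none.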

RD = test system: RD
How it was run: as §1

SW684 = test system: SW684
How it was run: as §1

SW872 = test system: SW872
How it was run: as §1

HS729 = test system: HS729
How it was run: as §1

SW1353 = test system: SW1353
How it was run: as §1

KHOS-NP = test system: KHOS-NP
How it was run: as §1

G401 = test system: G401
How it was run: as §1

HT1080 = test system: HT1080
How it was run: as §1

RD-ES = test system: RD-ES
How it was run: as §1

SK-LMS-1 = test system: SK-LMS-1
How it was run: as §1

KHOS-240S = test system: KHOS-240S
How it was run: as §1

CN(C)CCCOc1ccc(-c2ccc3ncc4c(c3c2)n(C2CCOCC2)c(=O)n4C)cn1 [AZD-0156]
Settings | relative viability
G401, 0.00017 µM | 1.08
G401, 0.00051 µM | 1.06
G401, 0.00152 µM | 1.06
G401, 0.00457 µM | 1.05
G401, 0.01372 µM | 1.06
G401, 0.04115 µM | 1.05
G401, 0.1235 µM | 1.03
G401, 0.3704 µM | 1.01
G401, 1.111 µM | 0.968
G401, 3.333 µM | 1.01
G401, 10 µM | 0.9515
HS729, 0.00017 µM | 1
HS729, 0.00051 µM | 1.02
HS729, 0.00152 µM | 1.01
HS729, 0.00457 µM | 0.968
HS729, 0.01372 µM | 0.937
HS729, 0.04115 µM | 0.9191
HS729, 0.1235 µM | 0.857
HS729, 0.3704 µM | 0.833
HS729, 1.111 µM | 0.766
HS729, 3.333 µM | 0.758
HS729, 10 µM | 0.519
HT1080, 0.00017 µM | 1.04
HT1080, 0.00051 µM | 1.1
HT1080, 0.00152 µM | 1.091
HT1080, 0.00457 µM | 1.12
HT1080, 0.01372 µM | 1.09
HT1080, 0.04115 µM | 1.09
HT1080, 0.1235 µM | 1.07
HT1080, 0.3704 µM | 1.06
HT1080, 1.111 µM | 1.09
HT1080, 3.333 µM | 1.11
HT1080, 10 µM | 1.026
KHOS-240S, 0.00017 µM | 1.08
KHOS-240S, 0.00051 µM | 1.1
KHOS-240S, 0.00152 µM | 1.1
KHOS-240S, 0.00457 µM | 1.08
KHOS-240S, 0.01372 µM | 1.06
KHOS-240S, 0.04115 µM | 1.03
KHOS-240S, 0.1235 µM | 1.04
KHOS-240S, 0.3704 µM | 0.99
KHOS-240S, 1.111 µM | 0.865
KHOS-240S, 3.333 µM | 0.814
KHOS-240S, 10 µM | 0.587
KHOS-NP, 0.00017 µM | 1.1
KHOS-NP, 0.00051 µM | 1.107
KHOS-NP, 0.00152 µM | 1.09
KHOS-NP, 0.00457 µM | 1.1
KHOS-NP, 0.01372 µM | 1.09
KHOS-NP, 0.04115 µM | 1.088
KHOS-NP, 0.1235 µM | 1.11
KHOS-NP, 0.3704 µM | 1.09
KHOS-NP, 1.111 µM | 1.03
KHOS-NP, 3.333 µM | 1.02
KHOS-NP, 10 µM | 0.764
RD, 0.00017 µM | 1.04
RD, 0.00051 µM | 1.08
RD, 0.00152 µM | 1.07
RD, 0.00457 µM | 1.1
RD, 0.01372 µM | 1.08
RD, 0.04115 µM | 1.11
RD, 0.1235 µM | 1.07
RD, 0.3704 µM | 1.076
RD, 1.111 µM | 0.949
RD, 3.333 µM | 0.592
RD, 10 µM | 0.536
RD-ES, 0.00017 µM | 0.944
RD-ES, 0.00051 µM | 1.01
RD-ES, 0.00152 µM | 1.03
RD-ES, 0.00457 µM | 1
RD-ES, 0.01372 µM | 0.861
RD-ES, 0.04115 µM | 0.839
RD-ES, 0.1235 µM | 0.7218
RD-ES, 0.3704 µM | 0.69
RD-ES, 1.111 µM | 0.616
RD-ES, 3.333 µM | 0.548
RD-ES, 10 µM | 0.36
SK-LMS-1, 0.00017 µM | 0.969
SK-LMS-1, 0.00051 µM | 1.01
SK-LMS-1, 0.00152 µM | 0.962
SK-LMS-1, 0.00457 µM | 0.976
SK-LMS-1, 0.01372 µM | 0.891
SK-LMS-1, 0.04115 µM | 0.881
SK-LMS-1, 0.1235 µM | 0.7368
SK-LMS-1, 0.3704 µM | 0.743
SK-LMS-1, 1.111 µM | 0.665
SK-LMS-1, 3.333 µM | 0.7995
SK-LMS-1, 10 µM | 0.674
SW684, 0.00017 µM | 1.16
SW684, 0.00051 µM | 1.17
SW684, 0.00152 µM | 1.17
SW684, 0.00457 µM | 1.19
SW684, 0.01372 µM | 1.13
SW684, 0.04115 µM | 1.16
SW684, 0.1235 µM | 0.994
SW684, 0.3704 µM | 0.963
SW684, 1.111 µM | 0.835
SW684, 3.333 µM | 0.918
SW684, 10 µM | 0.788
SW872, 0.00017 µM | 1.06
SW872, 0.00051 µM | 1.05
SW872, 0.00152 µM | 1.06
SW872, 0.00457 µM | 1.03
SW872, 0.01372 µM | 0.941
SW872, 0.04115 µM | 0.892
SW872, 0.1235 µM | 0.808
SW872, 0.3704 µM | 0.654
SW872, 1.111 µM | 0.476
SW872, 3.333 µM | 0.398
SW872, 10 µM | 0.26
SW1353, 0.00017 µM | 1.1
SW1353, 0.00051 µM | 1.07
SW1353, 0.00152 µM | 1.05
SW1353, 0.00457 µM | 1.07
SW1353, 0.01372 µM | 1.01
SW1353, 0.04115 µM | 1.02
SW1353, 0.1235 µM | 0.97
SW1353, 0.3704 µM | 0.951
SW1353, 1.111 µM | 0.883
SW1353, 3.333 µM | 0.949
SW1353, 10 µM | 0.865
SYO-1, 0.00017 µM | 1
SYO-1, 0.00051 µM | 1.01
SYO-1, 0.00152 µM | 0.983
SYO-1, 0.00457 µM | 0.949
SYO-1, 0.01372 µM | 0.869
SYO-1, 0.04115 µM | 0.891
SYO-1, 0.1235 µM | 0.737
SYO-1, 0.3704 µM | 0.701
SYO-1, 1.111 µM | 0.534
SYO-1, 3.333 µM | 0.526
SYO-1, 10 µM | 0.259
